These results are taken from ChEMBL document CHEMBL1141582, “Multi-target-directed coumarin derivatives: hAChE and BACE1 inhibitors as potential anti-Alzheimer compounds” (Bioorg Med Chem Lett, 2008).

Structures are written as SMILES.

Test [1] addresses Acetylcholinesterase (Homo sapiens, UniProt P22303). Briefly: Inhibition of human recombinant AChE by Ellman method. (In general: DTNB colorimetry detects thiols as they appear.)
Test [2] addresses Beta-secretase 1 (Homo sapiens, UniProt P56817). The test is described as follows: Inhibition of human recombinant BACE1 by spectrofluorimetric method.

Beta-secretase 1, sequence (P56817 whole entry): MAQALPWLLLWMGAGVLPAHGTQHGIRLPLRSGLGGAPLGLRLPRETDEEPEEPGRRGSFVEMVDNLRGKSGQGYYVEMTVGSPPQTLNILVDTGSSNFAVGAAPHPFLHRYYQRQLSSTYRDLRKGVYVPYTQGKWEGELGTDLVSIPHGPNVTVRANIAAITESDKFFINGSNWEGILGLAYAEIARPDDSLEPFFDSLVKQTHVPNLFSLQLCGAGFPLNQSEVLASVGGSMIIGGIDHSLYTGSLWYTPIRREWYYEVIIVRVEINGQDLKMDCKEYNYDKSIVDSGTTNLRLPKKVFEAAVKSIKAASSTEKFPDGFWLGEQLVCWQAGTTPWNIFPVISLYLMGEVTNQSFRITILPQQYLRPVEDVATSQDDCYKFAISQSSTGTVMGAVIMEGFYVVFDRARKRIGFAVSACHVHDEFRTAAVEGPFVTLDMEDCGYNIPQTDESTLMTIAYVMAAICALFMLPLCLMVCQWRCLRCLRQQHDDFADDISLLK
Acetylcholinesterase, sequence (P22303 whole entry): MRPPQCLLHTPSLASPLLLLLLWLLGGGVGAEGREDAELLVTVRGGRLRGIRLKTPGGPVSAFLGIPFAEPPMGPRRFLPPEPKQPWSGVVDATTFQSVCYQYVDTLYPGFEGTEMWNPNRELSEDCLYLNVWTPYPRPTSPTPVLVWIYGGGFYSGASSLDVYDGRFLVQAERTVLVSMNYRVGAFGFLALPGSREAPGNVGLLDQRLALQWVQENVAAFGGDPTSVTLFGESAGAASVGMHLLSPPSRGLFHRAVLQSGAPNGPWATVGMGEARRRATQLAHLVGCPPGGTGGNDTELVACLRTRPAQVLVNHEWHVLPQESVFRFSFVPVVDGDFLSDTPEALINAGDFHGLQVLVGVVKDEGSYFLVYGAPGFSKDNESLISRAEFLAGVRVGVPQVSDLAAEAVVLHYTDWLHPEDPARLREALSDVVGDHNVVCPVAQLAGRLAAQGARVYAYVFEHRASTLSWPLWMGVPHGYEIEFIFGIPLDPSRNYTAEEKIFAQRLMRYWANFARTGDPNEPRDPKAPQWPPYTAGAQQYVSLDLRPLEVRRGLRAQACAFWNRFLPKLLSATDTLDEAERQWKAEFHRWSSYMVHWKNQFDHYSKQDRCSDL

`CCN(Cc1ccccc1)Cc1ccc(-c2cc3cc(OCCNC(=O)/C=C/c4cc(F)cc(F)c4)ccc3oc2=O)cc1`: the IC50 (commonly the concentration that inhibits the measured activity by half) in test [1] was 7160 nM; in test [2], 99 nM.
The matching figures for `CCN(Cc1ccccc1)Cc1ccc(-c2cc3cc(OCCNC(=O)CCc4ccc(F)c(F)c4)ccc3oc2=O)cc1`: 2770 nM and 116 nM.
The matching figures for `CCN(Cc1ccccc1)Cc1ccc(-c2cc3ccc(OCCNC(=O)Cc4cc(F)cc(F)c4)cc3oc2=O)cc1`: 181 nM and 150 nM.
The matching figures for `CCN(Cc1ccccc1)Cc1ccc(-c2cc3ccc(OCCNC(=O)/C=C/c4ccc(Cl)c(Cl)c4)cc3oc2=O)cc1`: 4230 nM and 151 nM.
As for `CCN(Cc1ccccc1)Cc1ccc(-c2cc3ccc(OCCNC(=O)/C=C/c4cc(F)cc(F)c4)cc3oc2=O)cc1`, the values for the IC50 in test [1] and in test [2] were 4570 nM and 121 nM, respectively.
For `CCN(Cc1ccccc1)Cc1ccc(-c2cc3ccc(OCCNC(=O)CCc4ccc(F)c(F)c4)cc3oc2=O)cc1`, in that order: 327 nM and 114 nM.
For the compound `CCN(Cc1ccccc1)Cc1ccc(-c2cc3cc(OCCNC(=O)Cc4cc(F)cc(F)c4)ccc3oc2=O)cc1`, the IC50 in test [1] is 551 nM; in test [2], 149 nM.
The matching figures for `CCN(Cc1ccccc1)Cc1ccc(-c2cc3cc(OCCNC(=O)/C=C/c4ccc(Cl)c(Cl)c4)ccc3oc2=O)cc1`: 267000 nM and 133 nM.
